For one compound, EC50 results are on record in PMC3371634 (Biochemical pharmacology, 2007).

Usually EC50 stands for the midpoint of the concentration-response curve.

The structures appear in SMILES notation.

The target in the assay is ABCB1 (P-glycoprotein) (Homo sapiens, UniProt P08183). As to the kind of experiment: ABCB1 ATPase stimulation in plasma membrane vesicles. The assay is classed as biochemical.
ABCB1 (P-glycoprotein), sequence (P08183 whole entry): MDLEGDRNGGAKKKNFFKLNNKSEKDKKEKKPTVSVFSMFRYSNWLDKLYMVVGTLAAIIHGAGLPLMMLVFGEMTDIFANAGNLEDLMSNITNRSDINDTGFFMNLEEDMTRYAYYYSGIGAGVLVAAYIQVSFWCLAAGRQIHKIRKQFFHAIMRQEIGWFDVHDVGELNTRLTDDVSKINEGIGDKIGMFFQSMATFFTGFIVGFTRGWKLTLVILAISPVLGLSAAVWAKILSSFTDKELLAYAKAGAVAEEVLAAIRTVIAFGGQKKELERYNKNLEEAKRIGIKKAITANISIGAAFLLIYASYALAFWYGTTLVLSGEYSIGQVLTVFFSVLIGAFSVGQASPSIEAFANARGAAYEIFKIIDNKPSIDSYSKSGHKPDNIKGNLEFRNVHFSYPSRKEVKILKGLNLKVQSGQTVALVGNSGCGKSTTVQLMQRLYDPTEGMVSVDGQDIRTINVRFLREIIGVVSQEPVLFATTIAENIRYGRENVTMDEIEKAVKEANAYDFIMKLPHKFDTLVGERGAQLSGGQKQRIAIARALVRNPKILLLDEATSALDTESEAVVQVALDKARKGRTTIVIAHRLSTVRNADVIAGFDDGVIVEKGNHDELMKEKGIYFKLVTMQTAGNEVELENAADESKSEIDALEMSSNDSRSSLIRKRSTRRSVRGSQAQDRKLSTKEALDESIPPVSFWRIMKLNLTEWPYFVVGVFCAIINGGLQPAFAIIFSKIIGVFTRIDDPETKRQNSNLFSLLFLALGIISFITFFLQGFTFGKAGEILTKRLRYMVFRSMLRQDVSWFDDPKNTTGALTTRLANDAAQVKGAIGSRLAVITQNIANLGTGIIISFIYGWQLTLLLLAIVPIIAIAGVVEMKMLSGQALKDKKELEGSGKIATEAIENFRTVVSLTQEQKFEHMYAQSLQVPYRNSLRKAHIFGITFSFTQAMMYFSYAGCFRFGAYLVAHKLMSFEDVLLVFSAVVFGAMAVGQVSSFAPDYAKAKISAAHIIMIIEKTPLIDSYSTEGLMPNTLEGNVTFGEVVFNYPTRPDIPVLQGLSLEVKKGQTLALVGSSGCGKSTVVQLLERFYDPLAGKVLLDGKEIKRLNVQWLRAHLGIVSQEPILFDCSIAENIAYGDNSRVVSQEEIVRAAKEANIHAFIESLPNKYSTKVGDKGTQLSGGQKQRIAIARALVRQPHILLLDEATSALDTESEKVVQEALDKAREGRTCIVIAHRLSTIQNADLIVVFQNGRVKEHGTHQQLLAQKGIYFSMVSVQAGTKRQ

The compound `[La+3].c1cnc2c(c1)ccc1cccnc12.c1cnc2c(c1)ccc1cccnc12.c1cnc2c(c1)ccc1cccnc12` [KP772, [tris(1,10-phenanthroline)lanthanum(III)] trithiocyanate] displayed an EC50 of over 100 µM.
